Patent US6017958A, “Method of treating malignant tumors with thyroxine analogues having no significant hormonal activity” (Octamer, Inc., priority 1997, dated 2000)

Assays:
protein phosphatase 2A = experiment: Activation of purified protein phosphatase 2A (32P-histone H1 dephosphorylation); assay type: biochemical; conditions: 50 μM, 10 min preincubation
Method: 2.1 Preparation of ^32 P-labeled Histone H1 Substrate
Histone H1 was phosphorylated with protein kinase C (Upstate Biotechnology,Inc., Lake Placid, N.Y.) in a volume of 100 μL according to standard protocols. Alternatively, histone H1 was phosphorylated with p34cdc2 kinase purified from rapidly multiplying Mytilus Edulis embryos at 4-8 stage after isolation with the p^13 -Suc agarose technique (Smythe and Newport, 1992, "Coupling of Mitosis to the Completion of S Phase in Xenopus Occurs via Modulation of the Tyrosine Kinase that Phosphorylates p34cdc2," Cell 68:787-797).
125 ng purified protein phosphatase 2A (Upstate Biotechnology, Inc., Lake Placid, N.Y.; Usui et al., 1983, J. Biol. Chem. 258:10455-10463) was preincubated with thyroxine analogue (50 μM) in buffer (20 mM MOPS or Tris, pH 7.5, 1 mM MgCl2, 60 μM β-mercaptoethanol) for 10 min. at 23° C. Total reaction volume was 20 μL. ^32 P-labeled histone H1 substrate (10 μg, 10^5 cpm) was added and the dephosphorylation reaction allowed to proceed for 5 min. at 23° C., after which time the reaction was quenched by addition of 2 μL Laeimli buffer. An identical reaction containing 125 ng untreated protein phosphatase 2A was run as a control.
Phosphorylated and dephosphorylated histone H1 were separated by gel electrophoresis (12% SDS-PAGE), bands containing phosphorylated histone H1 excised and assayed for ^32 P activity via scintillation counter.
The velocity of dephosphorylation in 5 min. is an indication of the initial velocity (Vinit) of the dephosphorylation reaction.

MDA-MB-231 xenografts = conditions: cited from earlier work
[1] = 0.25 to 1.0 g/kg daily per os; cited from earlier work
E-ras 20 cells = experiment: Growth inhibition, E-ras 20; assay type: cell-based, bovine; conditions: Bos taurus, 72 h; day 3; Table 11; read-out: I50 (day 3)
Method: E-ras 20 cells were cultured as reported, Bauer et al., 1996, "Modification of growth related enzymatic pathways and apparent loss of tumorigenicity of a ras-transformed bovine endothelial cell line by treatment with 5-iodo-6-amino-1,2-benzopyrone (INH2 BP)" Intl. J. Oncol. 8:239-252; HT-144 (melanoma), DU-145 (prostatic cancer), HeLa (cervical cancer), HL 60 (promyelocytic leukemia), MDA-MB-231 (mammary cancer), SK-Br-3 (mammary cancer), T47D (ductal mammary cancer), A559 (lung cancer) were obtained from American Type Culture Collection (Rockville, Md.) and cultured in prescribed media. The effect of DIME was tested in cultures with a starting cell density of 2×10^4 cells per cm^2 and comparison of the effect of DIME on cell growth (intact cells identified by Trypan blue exclusion) was assayed by direct cell counting after trypsinization in a hemocytometer 72 hours after drug addition.
For DIME-exposure experiments cells were seeded into 2 cm^2 wells at a density of 2×10^4 cells/cm^2. DIME at various concentrations was added to the medium at the time of seeding. The cell cultures were then incubated for 3 days (37° C. in 5% at CO2 atmosphere).

[2] = test system: microtubule protein (MTP); experiment: Microtubule protein (MTP) polymerization optical test; assay type: biochemical, bovine or rabbit
Method: Preparation of MTP and an optical test for polymerization was adopted from published methods, Gaskin, et al., 1974, "Turbidimetric studies of the in vitro assembly and disassembly of porcine neurotubules", J. Mol. Biol. 89:737-758; Tiwari, et al., 1993, "A pH and temperature-dependent cycling method that doubles the yield of microtubule protein", Anal. Biochem. 215:96-103. Bovine or rabbit brain was homogenized in an equal volume of ice cold buffer containing 100 mM Pipes/K^+ (pH 7.4), 4 mM EGTA, 1 mM MgCl2, 0.5 mM DTT and 0.1 mM PMSF, and centrifuged at 39,000 g for 1 hour at 4° C. To the supernatant, DMSO (8% final concentration) and GTP (1 mM final concentration) were added, followed by incubation at 37° C. for 30 minutes. Microtubules were pelleted at 100,000 g at 37° C for 30 minutes. The pellets were incubated on ice for 15 minutes, followed by resuspension in ice cold PEM buffer (100 mM Pipes/K+(pH 6.9), 1 mM EGTA, 1 mM MgCl2). This warm polymerization and cold depolymerization cycle was repeated once more and the cold, resuspended monomeric MTP (8-10 mg/ml protein) was used for the optical test for polymerization kinetics. Both rabbit or bovine brain yielded identical MTP preparations.
The composition of the optical test is described in the legends of Figures and Table 12. The polymerization reaction was started by the addition of 100 μl of MTP solution (equivalent to 0.8-1.0 mg protein) and initial linear rates of increase in absorbance at 350 nm followed and recorded at 37° C. (see FIG. 1) in a Perkin-Elmer 552 double beam spectrophotometer, equipped with a thermostatically controlled cuvette holder.
[…] Microtubule assembly at 37° C. was monitored at λ=350 nm and initial velocities were calculated as mA350 /min. […] The values are averages of duplicate assays.

## COC(=O)c1cc(I)c(Oc2ccc(OC)cc2)c(I)c1 [Compound 1, Methyl 3,5-diiodo-4-(4'-methoxyphenoxy)benzoate]
Protein phosphatase 2A; control 10217 ± 1708, average of three samples
  Activity/5 min (initial velocity of histone H1 dephosphorylation): 24655 ± 8600 cpm
Protein phosphatase 2A
  increase of Vinit of histone H1 dephosphorylation: more than doubles Vinit
MDA-MB-231 xenografts; 0.25 g/kg and 1.0 g/kg
  dose-response of antitumor effect: had the same antitumor effect
MDA-MB-231 xenografts; 25-35 days, 0.25 to 1.0 g/kg daily per os, nude mice (Kun et al., 1996)
  tumor regression: 70-85%
[1]
  noticeable toxicity: no noticeable toxicity
E-ras 20 cells
  IC50: 1 µM
[2]; 1 μM DIME
  decrease of Vmax: ~50%
[2]; 1 μM DIME, versus GTP
  type of inhibition of MTP polymerization: "mixed" type inhibition
[2]; 1 μM DIME, 6.7 μM without drug, read-out: km GTP
  Km: 14 µM
[2]; 10 μM, 1 mM GTP, 37° C.
  Percent inhibition of initial velocity of microtubule assembly: 93%
[2]; 1 to 5 μM
  inhibition of GTP-dependent polymerization of MTP: inhibits the GTP-dependent polymerization of MTP
